Data from patent US4683227A, “Antibiotic derivatives of 7β-[2-(thiazol-4-yl)acetamide]-3-chloro-3-cephem-4-carboxylic acids and compositions and method of use thereof” (Eli Lilly and Company, priority 1985, dated 1987).
Converted amounts (≈) assume the structure as drawn. Where two headings read alike, the source gives them in different places.

Columns and labels:
[1] = in vivo, po; cited from earlier work
Escherichia coli EC14 = test: Minimum inhibitory concentration, standard agar dilution method; assay type: cell-based
From the text: (§1) The method of this invention is useful in treating infections caused by a variety of microorganisms pathogenic to man and animals. […] The concentrations were obtained by the standard agar dilution method.

[2] = test system: Staphylococcus epidermidis 222; test: as above; assay type: cell-based
From the text: as §1

[3] = test system: Klebsiella pneumoniae KAE; test: as above; assay type: cell-based; settings: for MIC: read-out: Minimum Inhibitory Concentration
From the text: as §1

[4] = test system: Staphylococcus aureus X1.1; test: as above; assay type: cell-based
From the text: as §1

[5] = test system: Streptococcus pneumoniae PARK I; test: as above; assay type: cell-based
From the text: as §1

[6] = test system: Staphylococcus aureus V41; test: as above; assay type: cell-based
From the text: as §1

[7] = test system: Streptococcus sp. group D X66; test: as above; assay type: cell-based; settings: for MIC: read-out: Minimum Inhibitory Concentration
From the text: as §1

[8] = test system: Haemophilus influenzae 76; test: as above; assay type: cell-based
From the text: as §1

[9] = test system: Haemophilus influenzae C.L.; test: as above; assay type: cell-based
From the text: as §1

[10] = test system: Staphylococcus epidermidis Epil; test: as above; assay type: cell-based
From the text: as §1

[11] = test system: Staphylococcus aureus X400; test: as above; assay type: cell-based
From the text: as §1

Escherichia coli N10 = test: as above; assay type: cell-based
From the text: as §1

[12] = test system: Klebsiella pneumoniae X68; test: as above; assay type: cell-based
From the text: as §1

[13] = test system: Staphylococcus aureus S13E; test: as above; assay type: cell-based; settings: for MIC: Staphylococcus aureus, S13E, read-out: Minimum Inhibitory Concentration
From the text: as §1

[14] = test system: Streptococcus pyogenes C203; test: as above; assay type: cell-based
From the text: as §1

Escherichia coli TEM = test: as above; assay type: cell-based
From the text: as §1

[15] = test system: Klebsiella pneumoniae X26; test: as above; assay type: cell-based
From the text: as §1

[16] = test system: Streptococcus sp. group D 2041; test: as above; assay type: cell-based; settings: for MIC: read-out: Minimum Inhibitory Concentration
From the text: as §1

[17] = Peroral bioavailability in mice (oral vs subcutaneous dosage); assay type: in vivo, mice (Cox Male Standard Mice, Lai:COX (Standard) BR); settings: 20 mg/kg; for Oral Bioavailability % BA (AUC): area under plasma curves after oral vs subcutaneous dosage; for Oral Bioavailability % BA (URINE): urinary excretion after oral vs subcutaneous dosage
From the text: Cox Male Standard Mice, Lai:COX (Standard) BR were housed overnight in a wire-bottom cage with free access to water and liquid diet. The result was a gastro-intestinal tract free of solids, yet without the nutritional shock and coprophagy that often accompanies overnight starvation of rodents. After dosing, the mice were housed individually in ventilated wide-mouth jars containing a layer of buffer beneath an elevated wire screen floor. At intervals after dosing, mice were removed from the jars and heparinized blood, stomach, and small intestine were removed from the animals. The urinary bladder was removed and combined with the urine collected in the buffer in the bottom of the jars. Urine, washings from the stomach and small intestine, and plasma prepared from blood samples were assayed for antibiotic activity. The test procedure used is a modification of the test procedure described by W. E. Wright, et al., J. Antibiotics, 32:1155 (1979).
Dose solutions were prepared in saline at 2 mg/ml for subcutaneous or oral administration. In all cases the compounds were administered to the mice at 20 mg/kg on an equal weight basis.
The biological activity of the samples was determined by a conventional agar well procedure using Bacillus subtilis ATCC 6633 as the test organism.
Peroral bioavailability (BA) of the test compounds in mice can be determined either by comparison of the area under the plasma curves (AUC) after oral or subcutaneous dosage, or by comparison of the urinary excretion of the dose after oral and subcutaneous dosage. Calculations of BA by either method are made with the following formulae: [formula]

[18] = Oral bioavailability in dogs; assay type: in vivo; settings: female mongrel dogs; oral; calculated with the above-described formulae
[19] = Klebsiella pneumoniae KAE, agar dilution
[20] = Streptococcus sp. group D X66, agar dilution
[21] = Streptococcus sp. group D 2041, agar dilution

Row | Structure (SMILES) | absorption from the gastrointestinal tract [1] | MIC (Escherichia coli EC14) | MIC [2] | MIC [4] | MIC [5] | MIC [8] | MIC [9] | MIC [10] | MIC (Escherichia coli N10) | MIC [12] | MIC [13] | MIC [14] | MIC (Escherichia coli TEM) | MIC [15] | Oral Bioavailability % BA (AUC) [17] | Oral Bioavailability % BA (URINE) [17] | other results
1 | N[C@@H](C(=O)N[C@@H]1C(=O)N2C(C(=O)O)=C(Cl)CS[C@H]12)c1ccccc1 [cefaclor] | high absorption | – | – | – | – | – | – | – | – | – | – | – | – | – | – | – | –
2 | Nc1nc(CC(=O)N[C@@H]2C(=O)N3C(C(=O)O)=C(Cl)CS[C@H]23)cs1 [Compound 2, 7β-[2-(2-Aminothiazol-4-yl)acetamido]-3-chloro-3-cephem-4-carboxylic acid] | – | 1 µg/mL (≈ 2.67 µM) | 1 µg/mL (≈ 2.67 µM) | 1 µg/mL (≈ 2.67 µM) | 0.5 µg/mL (≈ 1.33 µM) | 0.5 µg/mL (≈ 1.33 µM) | 0.5 µg/mL (≈ 1.33 µM) | 4 µg/mL (≈ 10.7 µM) | 4 µg/mL (≈ 10.7 µM) | 0.5 µg/mL (≈ 1.33 µM) | 32 µg/mL (≈ 85.4 µM) | 0.06 µg/mL (≈ 0.16 µM) | 2 µg/mL (≈ 5.34 µM) | 0.25 µg/mL (≈ 0.667 µM) | 62% | 64% | MIC [3, 19]: 16 µg/mL (≈ 42.7 µM); MIC ([6]; Staphylococcus aureus V41, agar dilution, read-out: Minimum Inhibitory Concentration): 32 µg/mL (≈ 85.4 µM); MIC [7, 20]: > 128 µg/mL; MIC ([11]; Staphylococcus aureus X400, agar dilution, read-out: Minimum Inhibitory Concentration): > 128 µg/mL; MIC [16, 21]: 32 µg/mL (≈ 85.4 µM); bioavailability [18]: 28%
3 | Cc1nc(CC(=O)N[C@@H]2C(=O)N3C(C(=O)O)=C(Cl)CS[C@H]23)cs1 [Compound 4, 7β-[2-(2-Methylthiazol-4-yl)acetamido]-3-chloro-3-cephem-4-carboxylic acid] | – | 16 µg/mL (≈ 42.8 µM) | 2 µg/mL (≈ 5.35 µM) | 1 µg/mL (≈ 2.67 µM) | 1 µg/mL (≈ 2.67 µM) | 1 µg/mL (≈ 2.67 µM) | 2 µg/mL (≈ 5.35 µM) | 8 µg/mL (≈ 21.4 µM) | 32 µg/mL (≈ 85.6 µM) | 8 µg/mL (≈ 21.4 µM) | 128 µg/mL (≈ 342 µM) | 0.25 µg/mL (≈ 0.669 µM) | 16 µg/mL (≈ 42.8 µM) | 2 µg/mL (≈ 5.35 µM) | 57% | 66% | MIC ([3]; Klebsiella pneumoniae): > 128 µg/mL; MIC ([6]; Staphylococcus aureus, V41, read-out: Minimum Inhibitory Concentration): 128 µg/mL (≈ 342 µM); MIC ([7]; Streptococcus): > 128 µg/mL; MIC ([11]; Staphylococcus aureus, X400, read-out: Minimum Inhibitory Concentration): > 128 µg/mL; MIC ([16]; Streptococcus): 128 µg/mL (≈ 342 µM)
4 | CC1=C(C(=O)O)N2C(=O)[C@@H](NC(=O)[C@H](N)C3=CCC=CC3)[C@H]2SC1 [cephradine] | high absorption | – | – | – | – | – | – | – | – | – | – | – | – | – | – | – | –
5 | Nc1nc(CC(=O)N[C@@H]2C(=O)N3C(C(=O)O)=C(Cl)CS[C@H]23)ns1 [Compound 1] | – | – | – | – | – | – | – | – | – | – | – | – | – | – | – | – | Minimum Inhibitory Concentration (Escherichia coli EC14): 8 µg/mL; Minimum Inhibitory Concentration [2]: 4 µg/mL; Minimum Inhibitory Concentration [3, 19]: > 128 µg/mL; Minimum Inhibitory Concentration [4]: 4 µg/mL; Minimum Inhibitory Concentration [5]: 2 µg/mL; Minimum Inhibitory Concentration ([6]; Staphylococcus aureus V41, agar dilution): 128 µg/mL; Minimum Inhibitory Concentration [7, 20]: > 128 µg/mL; Minimum Inhibitory Concentration [8]: 4 µg/mL; Minimum Inhibitory Concentration [9]: 4 µg/mL; Minimum Inhibitory Concentration [10]: 16 µg/mL; Minimum Inhibitory Concentration ([11]; Staphylococcus aureus X400, agar dilution): > 128 µg/mL; Minimum Inhibitory Concentration (Escherichia coli N10): 32 µg/mL; Minimum Inhibitory Concentration [12]: 8 µg/mL; Minimum Inhibitory Concentration ([13]; Staphylococcus aureus S13E, agar dilution): 64 µg/mL; Minimum Inhibitory Concentration [14]: 1 µg/mL; Minimum Inhibitory Concentration (Escherichia coli TEM): 16 µg/mL; Minimum Inhibitory Concentration [15]: 4 µg/mL; Minimum Inhibitory Concentration [16, 21]: 128 µg/mL
